Assays:
TBK1 = target: T1, TBK1 (Homo sapiens, UniProt Q9UHD2); assay: TBK biochemical assay; conditions: 10 point 1:4 dose response, 30 uM top concentration, 90 min at 25° C., LabChip EZ Reader II; read-out: TBK1_IC50
T1 sequence (Q9UHD2 1-729): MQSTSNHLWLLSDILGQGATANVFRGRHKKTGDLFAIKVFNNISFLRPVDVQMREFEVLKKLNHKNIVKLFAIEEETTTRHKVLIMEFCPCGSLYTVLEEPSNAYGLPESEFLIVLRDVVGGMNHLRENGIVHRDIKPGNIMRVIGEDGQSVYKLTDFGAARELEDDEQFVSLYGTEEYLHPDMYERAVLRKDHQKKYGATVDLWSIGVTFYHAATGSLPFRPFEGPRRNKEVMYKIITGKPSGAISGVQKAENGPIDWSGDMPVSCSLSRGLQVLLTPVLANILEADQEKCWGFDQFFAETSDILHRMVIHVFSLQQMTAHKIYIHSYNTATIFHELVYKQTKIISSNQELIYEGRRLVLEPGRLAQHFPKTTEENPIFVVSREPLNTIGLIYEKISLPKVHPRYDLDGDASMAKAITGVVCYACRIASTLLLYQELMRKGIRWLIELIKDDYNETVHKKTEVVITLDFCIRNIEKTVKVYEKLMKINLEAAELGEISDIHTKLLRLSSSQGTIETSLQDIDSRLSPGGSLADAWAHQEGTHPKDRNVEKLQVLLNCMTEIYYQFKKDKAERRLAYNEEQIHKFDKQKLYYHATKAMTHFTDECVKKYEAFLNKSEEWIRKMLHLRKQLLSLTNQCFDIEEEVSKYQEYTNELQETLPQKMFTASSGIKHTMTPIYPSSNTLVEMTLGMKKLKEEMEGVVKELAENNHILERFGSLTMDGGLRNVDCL
Description: (§1) Test compounds were transferred into Labcyte polypropylene 384 well plates (P055-25) and diluted to 3 mM using DMSO. […] 100 uM of a reference compound (1 uM final high concentration). Backfilling was performed if necessary so that all wells contain 1% DMSO final:
(§2) add 75 nl DMSO/well into columns 1, 2 and 24 using Labcyte Echo. add 75 nl 1.0 mM staurosporine/well into column 23 using Labcyte Echo ([…]) add 4.5 ul enzyme/well using multidrop dispenser add 3 ul substrate/well using multidrop dispenser incubate at 25° C. in Heidolph incubator for 90 min. add 7.5 ul 2× stop buffer using multidrop dispenser read on labchip ez reader II using TBK1.job
(§3) Raw data files were opened in the Caliper LabChip Reviewer program (Version 3.0.265.0 SP2) and peak assignments were adjusted to reflect “substrate first” with the software's post-run analysis options. A spline-fit baseline was applied using the software's analysis algorithm.

IKKε = target: T2, IKKε (Homo sapiens, UniProt Q14164); assay: IKKε biochemical assay; conditions: 10 point 1:4 dose response, 30 uM top concentration, 90 min at 25° C., LabChip EZ Reader II; read-out: IKKε_IC50
T2 sequence (Q14164 1-716): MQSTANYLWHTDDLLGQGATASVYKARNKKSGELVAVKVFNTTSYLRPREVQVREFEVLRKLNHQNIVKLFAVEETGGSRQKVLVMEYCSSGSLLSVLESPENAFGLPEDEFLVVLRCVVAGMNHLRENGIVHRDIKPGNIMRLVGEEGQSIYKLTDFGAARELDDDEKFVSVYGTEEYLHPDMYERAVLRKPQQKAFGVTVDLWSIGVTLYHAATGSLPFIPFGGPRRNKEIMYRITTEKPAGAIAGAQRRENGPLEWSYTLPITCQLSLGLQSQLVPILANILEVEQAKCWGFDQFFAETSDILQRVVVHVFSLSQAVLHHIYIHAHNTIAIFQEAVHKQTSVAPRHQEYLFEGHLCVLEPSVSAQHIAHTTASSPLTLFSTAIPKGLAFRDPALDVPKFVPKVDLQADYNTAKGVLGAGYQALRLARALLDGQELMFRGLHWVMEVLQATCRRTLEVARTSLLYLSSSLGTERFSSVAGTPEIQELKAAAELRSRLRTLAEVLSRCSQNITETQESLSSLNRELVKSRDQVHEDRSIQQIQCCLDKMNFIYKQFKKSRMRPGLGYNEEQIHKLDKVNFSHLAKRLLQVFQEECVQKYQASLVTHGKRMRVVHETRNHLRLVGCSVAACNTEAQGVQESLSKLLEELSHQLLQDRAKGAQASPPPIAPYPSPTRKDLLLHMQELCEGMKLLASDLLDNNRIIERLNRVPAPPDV
Description: as §1
as §2, with “C.” for “C. in Heidolph incubator”, “buffer” for “buffer using multidrop dispenser”, “IKKε.” for “TBK1.job”
as §3

| Compound | IC50 (TBK1) [µM] | IC50 (IKKε) [µM] |
| --- | --- | --- |
| C[C@H](O)C(=O)N1CCC(Oc2ccc(-c3ccnc(Nc4ccc(N5CCOCC5)cc4)n3)cc2C#N)C(F)(F)C1 (stereo partly drawn) [Example 216, 2-([3,3-difluoro-1-[(2S)-2-hydroxypropanoyl]piperidin-4-yl]oxy)-5-(2-[[4-(morpholin-4-yl)phenyl]amino]pyrimidin-4-yl)benzonitrile] | < 0.1 | < 0.1 |
| COc1nccc(Nc2nccc(-c3ccc(OC4CCNCC4(F)F)c(C#N)c3)n2)n1 (stereo not drawn) [Example 232, 2-(3,3-Difluoro-piperidin-4-yloxy)-5-[2-(2-methoxy-pyrimidin-4-ylamino)-pyrimidin-4-yl]-benzonitrile] | 0.1 to 1 | 0.1 to 1 |
| COc1nc(Nc2nccc(-c3ccc(OC4CCNCC4(F)F)c(C#N)c3)n2)ccc1N1CCN(C)C[C@@H]1C (stereo partly drawn) [Example 109, 2-(3,3-Difluoro-piperidin-4-yloxy)-5-{2-[5-((S)-2,4-dimethyl-piperazin-1-yl)-6-methoxy-pyridin-2-ylamino]-pyrimidin-4-yl}-benzonitrile] | < 0.1 | < 0.1 |
| COc1nc(Nc2nccc(-c3ccc(OC4CCOCC4)c(C#N)c3)n2)ccc1C(=O)N1CC2CCC1CO2 (stereo not drawn) [Example 11, 5-(2-[[6-methoxy-5-([2-oxa-5-azabicyclo[2.2.2]octan-5-yl]carbonyl)pyridin-2-yl]amino]pyrimidin-4-yl)-2-(oxan-4-yloxy)benzonitrile] | < 0.1 | < 0.1 |
| COc1nc(Nc2nccc(-c3ccc(OC4CCN(C(=O)[C@H](C)O)CC4(F)F)c(C#N)c3)n2)ccc1N1CCN(C2COC2)C[C@H]1C (stereo partly drawn) [Example 132, 2-[3,3-Difluoro-1-((S)-2-hydroxy-propionyl)-piperidin-4-yloxy]-5-{2-[6-methoxy-5-((R)-2-methyl-4-oxetan-3-yl-piperazin-1-yl)-pyridin-2-ylamino]-pyrimidin-4-yl}-benzonitrile] | < 0.1 | < 0.1 |
| COc1nc(Nc2nccc(-c3ccc(O[C@@H]4CCN(C(=O)CO)CC4(F)F)c(C#N)c3)n2)ccc1N1CCN(C)CC1 [Example 101, 2-[[(4R)-3,3-difluoro-1-(2-hydroxyacetyl)piperidin-4-yl]oxy]-5-(2-[[6-methoxy-5-(4-methylpiperazin-1-yl)pyridin-2-yl]amino]pyrimidin-4-yl)benzonitrile] | < 0.1 | < 0.1 |
| COc1nc(Nc2nccc(-c3ccc(OC4(C)CCN(C(=O)[C@H](C)O)CC4(F)F)c(C#N)c3)n2)ccc1N1CCN(C2COC2)CC1 (stereo partly drawn) [Example 265, 2-[3,3-Difluoro-1-((S)-2-hydroxy-propionyl)-4-methyl-piperidin-4-yloxy]-5-{2-[6-methoxy-5-(4-oxetan-3-yl-piperazin-1-yl)-pyridin-2-ylamino]-pyrimidin-4-yl}-benzonitrile] | < 0.1 | < 0.1 |
| COc1cc(N2CCN(C3COC3)CC2)ccc1Nc1nccc(-c2ccc(OC3CCN(C(=O)[C@H](C)O)CC3(F)F)c(C#N)c2)n1 (stereo partly drawn) [Example 228, 2-([33-difluoro-1-[(2S)-2-hydroxypropanoyl]piperidin-4-yl]oxy)-5-[2-([2-methoxy-4-[4-(oxetan-3-yl)piperazin-1-yl]phenyl]amino)pyrimidin-4-yl]benzonitrile] | < 0.1 | < 0.1 |
| COc1nc(Nc2nccc(-c3ccc(O[C@H]4CCN(C(=O)c5cnn[nH]5)C[C@H]4F)c(C#N)c3)n2)ccc1N1CCN(C2COC2)CC1 [Example 115, 2-[[(3R,4S)-3-fluoro-1-[(1H-1,2,3-triazol-5-yl)carbonyl]piperidin-4-yl]oxy]-5-[2-([6-methoxy-5-[4-(oxetan-3-yl)piperazin-1-yl]pyridin-2-yl]amino)pyrimidin-4-yl]benzonitrile] | < 0.1 | < 0.1 |
| COc1cc(Nc2nccc(-c3ccc(OC4CCN(C(=O)[C@H](C)O)CC4(F)F)c(C#N)c3)n2)cnc1N1CCN(C2COC2)CC1 (stereo partly drawn) [Example 323, 2-([3,3-difluoro-1-[(2S)-2-hydroxypropanoyl]piperidin-4-yl]oxy)-5-[2-([5-methoxy-6-[4-(oxetan-3-yl)piperazin-1-yl]pyridin-3-yl]amino)pyrimidin-4-yl]benzonitrile] | < 0.1 | < 0.1 |
| N#Cc1cc(-c2ccnc(Nc3ccccn3)n2)ccc1OC1CCN(C(=O)[C@@H](O)CO)CC1(F)F (stereo partly drawn) [Example 243, 2-[1-((S)-2,3-Dihydroxy-propionyl)-3,3-difluoro-piperidin-4-yloxy]-5-[2-(pyridin-2-ylamino)-pyrimidin-4-yl]-benzonitrile] | < 0.1 | < 0.1 |
| CC[C@H](O)C(=O)N1CCC(Oc2ccc(-c3ccnc(Nc4ccc(N5CCN(C6COC6)CC5)c(OC)n4)n3)cc2C#N)C(F)(F)C1 (stereo partly drawn) [Example 258, 2-[3,3-Difluoro-1-((S)-2-hydroxy-butyryl)-piperidin-4-yloxy]-5-{2-[6-methoxy-5-(4-oxetan-3-yl-piperazin-1-yl)-pyridin-2-ylamino]-pyrimidin-4-yl}-benzonitrile] | < 0.1 | < 0.1 |
| N#Cc1cc(-c2ccnc(Nc3ccc(N4CCN(C5CC5)CC4)cc3)n2)ccc1OC1CCOCC1 [Example 134, 5-{2-[4-(4-Cyclopropyl-piperazin-1-yl)-phenylamino]-pyrimidin-4-yl}-2-(tetrahydro-pyran-4-yloxy)-benzonitrile] | < 0.1 | < 0.1 |
| COc1nc(Nc2nccc(-c3ccc(OC4CCN(C(=O)CO)CC4)c(C#N)c3)n2)ccc1C(=O)N(C)C [Example 73, 6-[[4-(3-cyano-4-[[1-(2-hydroxyacetyl)piperidin-4-yl]oxy]phenyl)pyrimidin-2-yl]amino]-2-methoxy-N,N-dimethylpyridine-3-carboxamide] | < 0.1 | < 0.1 |
| COc1cc(Nc2nccc(-c3ccc(O[C@H]4CCN(C(=O)[C@@H](C)O)CC4(F)F)c(C#N)c3)n2)ccn1 [Example 230, 2-((S)-3,3-difluoro-1-((R)-2-hydroxypropanoyl)piperidin-4-yloxy)-5-(2-(2-methoxypyridin-4-ylamino)pyrimidin-4-yl)benzonitrile] | 0.1 to 1 | < 0.1 |
| tert-butyl 4-[2-cyano-5-methyl-4-[2-([4-[4-(oxetan-3-yl)piperazin-1-yl]phenyl]amino)pyrimidin-4-yl]phenoxy]-3,3-difluoropiperidine-1-carboxylate [Example 308] | < 0.1 | < 0.1 |
| COc1nc(Nc2nccc(-c3ccc(O[C@H]4CCN(C(=O)[C@H](C)O)CC4(F)F)c(C#N)c3)n2)ccc1N1CCN(C2COC2)CC1 [Example 121, 2-[[(4S)-3,3-difluoro-1-[(2S)-2-hydroxypropanoyl]piperidin-4-yl]oxy]-5-[2-([6-methoxy-5-[4-(oxetan-3-yl)piperazin-1-yl]pyridin-2-yl]amino)pyrimidin-4-yl]benzonitrile] | < 0.1 | – |

Source: patent publication US20230019491A1, “PYRIMIDINE TBK/IKKe INHIBITOR COMPOUNDS AND USES THEREOF” (Merck Patent GmbH, priority 2017, published 2023)
